Results published in patent US6680333B2, “Imidazolidine derivatives, their preparation, their use and pharmaceutical preparations comprising them” (Aventis Pharma Deutschland GmbH, priority 2001, dated 2004).
Structures can show the parent of a compound that is named as a salt.

biological target: T1, adhesion of U937 cells (VLA-4) to hVCAM-1(1-3)-IgG (Homo sapiens, UniProt P05556+P13612); test: U937/VCAM-1 cell adhesion test; assay type: cell-based; conditions: human U937 cells (ATCC CRL 1593); recombinant hVCAM-1(1-3)-IgG; read-out: IC50 (inhibition of the adhesion of U937 cells to hVCAM-1(1-3)-IgG by 50%)
T1 construct: the VLA-4 integrins, are supplied in their natural form as surface molecules on human U937 cells; host or cells: Human U937 cells carry endogenous VLA-4; The partner hVCAM-1(1-3)-IgG was made in transfected COS cells (ATCC CRL1651) and used as culture supernatant
T1 sequence (P13612 34-1032): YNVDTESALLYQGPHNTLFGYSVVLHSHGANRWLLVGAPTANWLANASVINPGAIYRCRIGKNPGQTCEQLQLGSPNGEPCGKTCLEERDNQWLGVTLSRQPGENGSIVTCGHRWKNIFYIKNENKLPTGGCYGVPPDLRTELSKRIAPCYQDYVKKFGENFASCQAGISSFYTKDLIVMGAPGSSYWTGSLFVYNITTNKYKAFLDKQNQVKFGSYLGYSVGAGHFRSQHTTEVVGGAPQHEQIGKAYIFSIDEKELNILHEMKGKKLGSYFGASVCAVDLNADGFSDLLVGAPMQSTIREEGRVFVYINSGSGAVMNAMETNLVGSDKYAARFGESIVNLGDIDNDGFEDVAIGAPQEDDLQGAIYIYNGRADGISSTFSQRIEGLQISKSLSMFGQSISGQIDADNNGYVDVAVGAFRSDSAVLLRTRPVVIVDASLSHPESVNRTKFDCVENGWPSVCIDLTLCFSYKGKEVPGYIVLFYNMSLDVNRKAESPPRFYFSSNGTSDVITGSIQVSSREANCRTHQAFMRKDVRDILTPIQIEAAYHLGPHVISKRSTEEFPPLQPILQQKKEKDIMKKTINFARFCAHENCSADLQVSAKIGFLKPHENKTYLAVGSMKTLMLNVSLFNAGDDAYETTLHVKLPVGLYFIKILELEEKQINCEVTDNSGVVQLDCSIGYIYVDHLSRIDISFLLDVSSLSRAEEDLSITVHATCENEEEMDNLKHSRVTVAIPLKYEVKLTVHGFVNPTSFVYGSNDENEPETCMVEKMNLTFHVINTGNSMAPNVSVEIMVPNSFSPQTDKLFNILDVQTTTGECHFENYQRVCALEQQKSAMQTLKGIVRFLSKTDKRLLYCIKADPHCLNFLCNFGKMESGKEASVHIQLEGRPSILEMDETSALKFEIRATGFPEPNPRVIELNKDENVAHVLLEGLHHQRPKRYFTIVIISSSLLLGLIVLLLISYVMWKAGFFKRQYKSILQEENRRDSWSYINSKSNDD
T1 sequence (P05556 21-798): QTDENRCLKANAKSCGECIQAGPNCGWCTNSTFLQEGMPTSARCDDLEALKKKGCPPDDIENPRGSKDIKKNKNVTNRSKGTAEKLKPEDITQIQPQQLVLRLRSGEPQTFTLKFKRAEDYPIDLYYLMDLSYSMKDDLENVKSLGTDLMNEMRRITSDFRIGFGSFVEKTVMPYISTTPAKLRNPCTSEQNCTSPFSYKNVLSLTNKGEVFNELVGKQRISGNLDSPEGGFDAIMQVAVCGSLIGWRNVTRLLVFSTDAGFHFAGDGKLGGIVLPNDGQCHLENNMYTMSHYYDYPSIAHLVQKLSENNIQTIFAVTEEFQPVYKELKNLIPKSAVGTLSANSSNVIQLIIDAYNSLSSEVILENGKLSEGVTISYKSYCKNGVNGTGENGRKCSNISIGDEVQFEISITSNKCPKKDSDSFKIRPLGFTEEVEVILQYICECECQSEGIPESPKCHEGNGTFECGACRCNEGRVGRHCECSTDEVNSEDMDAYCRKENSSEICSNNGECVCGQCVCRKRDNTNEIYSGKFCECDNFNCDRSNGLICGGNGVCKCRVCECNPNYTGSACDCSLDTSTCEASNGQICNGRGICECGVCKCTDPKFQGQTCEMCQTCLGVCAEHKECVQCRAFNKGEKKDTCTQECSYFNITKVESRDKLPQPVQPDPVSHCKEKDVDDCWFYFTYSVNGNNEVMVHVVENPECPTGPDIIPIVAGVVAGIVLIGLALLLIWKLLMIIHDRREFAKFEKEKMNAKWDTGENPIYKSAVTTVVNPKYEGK
Excerpt: A) U937/VCAM-1 Cell Adhesion Test
The test method used for the activity of the compounds of formula I on the interaction between VCAM-1 and VLA-4 is the assay described below, which is specific for this interaction. The cellular binding components, i.e., the VLA-4 integrins, are supplied in their natural form as surface molecules on human U937 cells (ATCC CRL 1593), which belong to the leukocytes group. As specific binding components, recombinant soluble fusion proteins prepared by genetic engineering, consisting of the extracytoplasmic domain of human VCAM-1 and the constant region of a human immunoglobulin of subclass IgG1, are used.
Assay for the measurement of the adhesion of U937 cells (ATCC CRL 1593) to hVCAM-1(1-3)-IgG
1. Preparation of Human VCAM-1(1-3)-IgG and Human CD4-IgG
A genetic construct for the expression of the extracellular domain of human VCAM-1, combined with the genetic sequence of the heavy chain of the human immunoglobulin IgG1 (hinge, CH2 and CH3 regions) (from Dr. Brian Seed, Massachusetts General Hospital, Boston, USA; cf. Damle and Aruffo, Proc. Natl. Acad. Sci. USA, 88:6403 (1991)), was employed. The soluble fusion protein hVCAM-1(1-3)-IgG contained the three amino-terminal extracellular immunoglobulin-like domains of human VCAM-1 (Damle and Aruffo, Proc. Natl. Acad. Sci. USA, 88:6403 (1991)). CD4-IgG (Zettlmeissl et al., DNA and Cell Biology, 9:347 (1990)) served as a fusion protein for negative controls. The recombinant proteins were expressed as soluble proteins after DEAE/dextran-mediated DNA transfection in COS cells (ATCC CRL1651) according to standard procedures (Ausubel et al., “Current Protocols in Molecular Biology”, John Wiley & Sons, Inc., 1994).
2. Assay for the Measurement of the Adhesion of U937 Cells to hVCAM-1 (1-3)-IgG
2.1 96 well microtiter test plates (Nunc Maxisorb) were incubated at room temperature for 1 hour with 100 μL/well of a goat anti-human IgG antibody solution (10 μg/mL in 50 mM tris, pH 9.5). After removal of the antibody solution, washing was carried out once with PBS.
2.2 150 μL/well of a blocking buffer (1% BSA in PBS) were incubated on the plates at room temperature for 0.5 hour. After removal of the blocking buffer, washing was carried out once with PBS.
2.3 100 μL per well of a cell culture supernatant of transfected COS cells were incubated on the plates at room temperature for 1.5 hours. The COS cells were transfected with a plasmid which codes for the three N-terminal immunglobulin-like domains of VCAM-1, coupled to the Fc part of human IgG1 (hVCAM-l (1-3)-IgG). The content of hVCAM-1(1-3)-IgG was about 0.5-1 μg/mL. After removal of the culture supernatant, washing was carried out once with PBS.
2.4 The plates were incubated at room temperature for 20 minutes with 100 μL/well of Fc receptor block buffer (1 mg/mL γ-globulin, 100 mM NaCl, 100 μM MgCl2, 100 μM MnCl2, 100 μM CaCl2, 1 mg/mL BSA in 50 mM HEPES, pH 7.5). After removal of the Fc receptor block buffer, washing was carried out once with PBS.
2.5 20 μL of binding buffer (100 mM NaCl, 100 μM MgCl2, 100 μM MnCl2, 100 μM CaCl2, 1 mg/mL BSA in 50 mM HEPES, pH 7.5) were introduced, the substances to be tested were added in 10 μL of binding buffer and incubation was carried out for 20 minutes. Antibodies against VCAM-1 (BBT, No. BBA6) and against VLA-4 (Immunotech, No. 0764) served as controls.
2.6 U937 cells were incubated for 20 minutes in Fc receptor block buffer and then added by pipette in a concentration of 1×10^6/mL and in an amount of 100 μL per well (final volume […]).
2.7 The plates were slowly immersed at an angle of 45° in stop buffer (100 mM NaCl, 100 μM MgCl2, […], 100 μM CaCl2 in 25 mM tris, pH 7.5) and shaken off. The process was repeated.
2.8 50 μL/well of a dye solution (16.7 μg/mL of Hoechst dye 33258, 4% formaldehyde, 0.5% Triton X-100 in PBS) were then incubated on the plates for 15 minutes. […]

| Compound | IC50 [nM] |
| --- | --- |
| Cc1ccccc1NC(=O)Nc1ccc(CN2C(=O)N([C@@H](CC3CC3)C(=O)N[C@H](C)CC(=O)O)C(=O)C2(C)C)cc1O [Example 5, (R)-3-((S)-2-(4,4-Dimethyl-3-(4-(3-(2-methylphenyl)ureido)-3-hydroxybenzyl)-2,5-dioxoimidazolidin-1-yl)-2-(cyclopropylmethyl)acetylamino)-3-methylpropionic Acid] | 25.9 |
| COc1cc(CN2C(=O)N([C@@H](CC3CC3)C(=O)NC(CC(=O)O)c3ccncc3)C(=O)C2(C)C)ccc1NC(=O)Nc1ccccc1C (stereo partly drawn) [Example 13, 3-((S)-2-(4,4-Dimethyl-3-(4-(3-(2-methylphenyl)ureido)-3-methoxybenzyl)-2,5-dioxoimidazolidin-1-yl)-2-(cyclopropylmethyl)acetylamino)-3-(4-pyridyl)propionic Acid Hydrochloride] | 1.8 |
| COc1cc(CN2C(=O)N([C@@H](CC3CC3)C(=O)N[C@H](C)CC(=O)O)C(=O)C2(C)C)ccc1NC(=O)Nc1ccccc1C [Example 1, (R)-3-((S)-2-(4,4-Dimethyl-3-(4-(3-(2-methylphenyl)ureido)-3-methoxybenzyl)-2,5-dioxoimidazolidin-1-yl)-2-(cyclopropylmethyl)acetylamino)-3-methylpropionic Acid] | 0.3 |
| COc1cc(CN2C(=O)N([C@@H](CC3CC3)C(=O)N[C@H](C)CC(=O)O)C(=O)C2(C)C)ccc1NC(=O)Nc1ccccc1C [Example 2] | 0.5 |
| COc1cc(CN2C(=O)N([C@@H](CC3CC3)C(=O)NC(CC(=O)O)c3ccccn3)C(=O)C2(C)C)ccc1NC(=O)Nc1ccccc1C (stereo partly drawn) [Example 16, 3-((S)-2-(4,4-Dimethyl-3-(4-(3-(2-methylphenyl)ureido)-3-methoxybenzyl)-2,5-dioxoimidazolidin-1-yl)-2-(cyclopropylmethyl)acetylamino)-3-(2-pyridyl)propionic Acid] | 0.9 |
| COc1cc(CN2C(=O)N([C@@H](CC3CC3)C(=O)N[C@@H](CC(=O)O)c3ccccc3)C(=O)C2(C(F)(F)F)C(F)(F)F)ccc1NC(=O)Nc1ccccc1C [Example 19, (S)-3-((S)-2-(4,4-Bis(trifluoromethyl)-3-(4-(3-(2-methylphenyl)ureido)-3-methoxybenzyl)-2,5-dioxoimidazolidin-1-yl)-2-(cyclopropylmethyl)acetylamino)-3-phenylpropionic Acid] | 4.4 |
| COc1cc(CN2C(=O)N([C@@H](CC3CC3)C(=O)NC(CC(=O)O)c3cccnc3)C(=O)C2(C)C)ccc1NC(=O)Nc1ccccc1C (stereo partly drawn) [Example 10, 3-((S)-2-(4,4-Dimethyl-3-(4-(3-(2-methylphenyl)ureido)-3-methoxybenzyl)-2,5-dioxoimidazolidin-1-yl)-2-(cyclopropylmethyl)acetylamino)-3-(3-pyridyl)propionic Acid Hydrochloride] | 0.6 |
| COc1cc(CN2C(=O)N([C@@H](CC3CC3)C(=O)N[C@H](C)CC(=O)O)C(=O)C2(C)C)ccc1NC(=O)Nc1ccccc1 [Example 7, (R)-3-((S)-2-(4,4-Dimethyl-3-(4-(3-phenylureido)-3-methoxybenzyl)-2,5-dioxoimidazolidin-1-yl)-2-(cyclopropylmethyl)acetylamino)-3-methylpropionic Acid] | 2.1 |
